ChEMBL document CHEMBL4419178, “Yap1 inhibitors that target the interaction of yap1 with oct4” (2018)
Calls of active or inactive are those of the source. The rule behind the calls is not given here.

What was measured:
[1] = biological target: Transcriptional coactivator YAP1 (Homo sapiens) (UniProt P46937); assay: Inhibition of YAP1 (unknown origin) assessed as disruption in YAP1/OCT4 interaction at 5 uM by ELISA relative to control
[2] = biological target: Transcriptional coactivator YAP1 (Homo sapiens) (UniProt P46937); assay: Inhibition of YAP1 (unknown origin) assessed as disruption in YAP1/OCT4 interaction at 50 uM by cell based assay
NCI-H1650 [3] = assay: Inhibition of self-renewal capacity in stem-like side-population cells of human NCI-H1650 cells assessed as reduction in number of spheres at 50 uM incubated for 10 days by sphere formation assay; format: functional, cell-based
[4] = biological target: Transcriptional coactivator YAP1 (Homo sapiens) (UniProt P46937); assay: Inhibition of YAP1 (unknown origin) assessed as disruption in YAP1/OCT4 interaction at 10 uM by ELISA relative to control
NCI-H1650 [5] = assay: Cytotoxicity in human NCI-H1650 cells assessed as induction of cell killing in presence of cancer associated fibroblasts at 20 to 50 uM incubated for 24 to 48 hrs by cytotracker-red/green dye staining based immunofluorescence microscopy; format: functional
[6] = Cytotoxicity in human cancer associated fibroblasts at 20 to 50 uM incubated for 24 to 48 hrs by cytotracker-red/green dye staining based immunofluorescence microscopy
NCI-H1650 [7] = assay: Inhibition of self-renewal capacity in stem-like side-population cells of human NCI-H1650 cells assessed as reduction in number of spheres at 1 to 20 uM incubated for 10 days by sphere formation assay; format: functional, cell-based
[8] = biological target: Transcriptional coactivator YAP1 (Homo sapiens) (UniProt P46937); assay: Inhibition of YAP1 in human A549 cells assessed as disruption in YAP1/OCT4 co-localization at 25 uM incubated for 48 hrs by double immunofluorescence based assay; format: cell-based
NCI-H1650 [9] = assay: Inhibition of self-renewal capacity in stem-like side-population cells of human NCI-H1650 cells assessed as reduction in number of spheres at 5 to 50 uM incubated for 10 days by sphere formation assay; format: functional, cell-based
[10] = biological target: Transcriptional coactivator YAP1 (Homo sapiens) (UniProt P46937); assay: Inhibition of YAP1 in human NCI-H1650 cells assessed as disruption in YAP1/OCT4 interaction at 20 to 50 uM incubated for 48 hrs by proximity ligation assay; format: cell-based
NCI-H1650 [11] = assay: Inhibition of YAP1 in human NCI-H1650 cells assessed as disruption in YAP1/TEAD2 interaction at 20 to 50 uM incubated for 48 hrs by proximity ligation assay; format: cell-based

Sequence of Transcriptional coactivator YAP1 (Homo sapiens) (P46937 whole entry): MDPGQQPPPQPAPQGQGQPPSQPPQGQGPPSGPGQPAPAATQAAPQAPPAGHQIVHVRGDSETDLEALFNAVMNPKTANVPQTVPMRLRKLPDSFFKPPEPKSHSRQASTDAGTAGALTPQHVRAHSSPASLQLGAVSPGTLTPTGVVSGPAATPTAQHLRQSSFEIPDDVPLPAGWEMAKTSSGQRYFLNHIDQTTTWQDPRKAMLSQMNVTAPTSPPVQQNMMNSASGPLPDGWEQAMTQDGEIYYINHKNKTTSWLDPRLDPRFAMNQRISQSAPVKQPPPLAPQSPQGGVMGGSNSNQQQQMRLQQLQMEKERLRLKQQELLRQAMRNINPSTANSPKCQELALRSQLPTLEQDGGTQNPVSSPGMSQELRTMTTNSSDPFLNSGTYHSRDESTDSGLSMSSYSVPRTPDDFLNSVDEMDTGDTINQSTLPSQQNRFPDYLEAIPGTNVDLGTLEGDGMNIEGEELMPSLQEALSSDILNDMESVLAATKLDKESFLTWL

SMILES | inhibition [1] [%] | inhibition [2] [%] | inhibition (NCI-H1650 [3]) | Activity (NCI-H1650 [5]) | Activity [6] | further results
O=C(CC1CCN(C(=O)CCc2ccccc2)CC1)N[C@@H](Cc1ccc(OCc2ccccc2)cc1)C(=O)NC1CCCC1 | 90 | > 70 | – | – | – | –
CC(C)(C)OC(=O)N1CCC(CC(=O)N[C@@H](Cc2ccc(OCc3ccccc3)cc2)C(=O)O)CC1 | 75 | 74 | – | – | – | –
O=C1NC2C(O)C(O)C(O)C(O)C2c2cc3c(c(O)c21)OCO3 (centres undefined) | – | – | Active | – | – | –
O=C(CC1CCN(C(=O)CCc2ccccc2)CC1)N[C@@H](Cc1ccc(OCc2ccccc2)cc1)C(=O)NC1CC1 | 90 | > 73 | – | – | – | inhibition [4]: 90%
COC(=O)[C@H](Cc1ccc(O)cc1)NC(=O)CC1CCN(C(=O)OC(C)(C)C)CC1 | 78 | 70 | – | – | – | –
CC1Oc2cc3c(-c4c(O)cc(O)c5c(O)c6c(cc45)OC(C)C(C)C6=O)c(O)cc(O)c3c(O)c2C(=O)C1C (centres undefined) | – | – | Active | Active | Non-Toxic | –
O=C(CC1CCN(C(=O)CCc2ccccc2)CC1)N[C@@H](Cc1ccc(OCc2ccccc2)cc1)C(=O)NC1CCC1 | – | 65 | – | – | – | inhibition [4]: 80%
CCOc1ccc(CCC(=O)N2CCC(CC(=O)N[C@@H](Cc3ccc(OCc4ccccc4)cc3)C(=O)OC)CC2)cc1 | – | – | – | – | – | inhibition (NCI-H1650 [7]): Active
COc1cc2c(cc1OC)[N+]([O-])=C(c1ccccc1)C2=O | – | – | – | Active | Non-Toxic | inhibition [8]: Active
O=[N+]([O-])c1[nH]cnc1/C=C/c1ccccc1 | – | – | Active | Active | Non-Toxic | inhibition [8]: Active; inhibition (NCI-H1650 [9]): Active
COC(=O)[C@H](Cc1ccc(O)cc1)NC(=O)CC1CCN(C(=O)CCc2ccccc2)CC1 | 97 | > 77 | – | – | – | –
COCCn1c2nc(=O)n(-c3ccccc3)c(=O)c-2nc2ccccc21 | – | – | Active | Active | Non-Toxic | inhibition [8]: Active; inhibition [10]: Active; inhibition (NCI-H1650 [11]): Active; inhibition (NCI-H1650 [7]): Active
CCOC(=O)/C(C#N)=C/c1c[nH]c2ccccc12 | – | – | Active | – | – | –
